Results: patent US8148431B2, “Osteogenesis promoter containing β-cryptoxanthin as the active ingredient” (Kemin Health, L.C., priority 2002, dated 2012)
Marks after values point to notes of the source that are not given here.

Columns and labels:
[1] = system: metaphysis tissue of the femur (cancellous bone); experiment: Bone alkaline phosphatase activity in cultured femoral metaphysis tissue pieces; type: cell-based, Wistar male rats; settings: for Bone alkaline phosphatase activity: metaphysis tissue, mean ± SE
Method: (§1) The femurs were extracted from rats (Wistar male rats; 4 to 5 weeks old) (purchased from Japan SLC Co., Ltd. and fed with solid Oriental yeast (MF)) under anesthesia with ether under a germfree condition. The femurs were each washed with 0.25 M sucrose solution, and then divided into the diaphysis (cortical bone) and metaphysis (cancellous bone). The bone tissue pieces were cultured in a culture medium (Dulbecco's modified culture medium containing 5% of glucose; serum-free medium) containing. β-cryptoxanthin, etc. at […] in an incubator filled with 5% CO2-95% air for 48 hours. β-cryptoxanthin used was “β-cryptoxanthin” of Extrasynthase Co., cycloheximide used was “Cycloheximide” of Sigma Co. Ltd., β-carotene was “β-carotene” of Sigma ? , xanthine was “Xanthine” of Sigma Co, Ltd., parathormone was “Parathormone” of Sigma Co. Ltd. and prostaglandin E2 was “Prostaglandin E2” of Sigma Co. Ltd. In the control, only the culture medium was used without β-cryptoxanthin or the like.
(§2) The expression level of alkaline phosphatase, which is the most important enzyme for the acceleration of the calcification of bones, was examined. The tissue pieces cultured in the incubator were washed in 0.25 M sucrose solution, then pulverized in 3 ml of 65 mM barbital buffer (pH 7-4) and treated with ultrasonic waves. The resultant liquid was centrifuged. The supernatant, as the enzyme solution, was determined by a method of Walter ad Schutt in Method of Enzymatic Analysis, Vol. 1-2, p. 856, Academic Press, New York, 1965). Namely, this method was carried out as follows: p-nitrophenylphosphoric acid was used as the substrate. 0.05 ml of the enzyme solution was added to 2 ml of diethanolamine buffer (pH 9.8). After the incubation at 37° C. for 30 minutes, 10 ml of 0.05 N NaOH was added to the mixture. The absorbance (405 nm) was determined with a spectrophotometer to determine bone alkaline phosphatase activity of a bone remedy or a compound known to be effective for the bones.
(§3) The bone component-increasing effect of β-cryptoxanthin was examined. The diaphysis and metaphysis tissue of the femur was cultured in the above-described culture medium containing β-cryptoxanthin ([…]) for 48 hours. Calcium level in the bone tissue, alkaline phosphatase activity (enzyme for accelerating the bone calcification) and the amount of deoxyribonucleic acid (DNA; index of number of cells in the bone tissue) were determined by the same methods as in Example 1. In each test group, the determination vas conducted 6 to 8 times and the results were represented by the average value and the standard error. The significant difference was determined by Student's t-test. The result was compared with that of the control. When P value was not higher than 0.01 (**) or not higher than 0.05 (*), the results were statistically significant.

[2] = system: metaphysis tissue of the femur (cancellous bone); experiment: Bone DNA level in cultured femoral metaphysis tissue pieces; type: cell-based, Wistar male rats; settings: for Bone DNA level: metaphysis tissue, mean ± SE
Method: as §1
DNA level was determined as an index of the number of cells in the bone tissue. After the culture in an incubator, the tissue pieces were washed with 0.25 M sucrose solution and then the wet weight of them was determined. They were pulverized in 4 ml of 0.1 N NaOH. After the osmosis at 4° C. for 24 hours, the liquid mixture was centrifuged. The supernatant was taken as the sample and determined by a method of Ceriotti et al. (J. Biol. Chem., 241; 34-77, 1951). Namely, 1 ml of concentrated hydrochloric acid and 1 ml of 0.04% indole solution were added to 2 ml of the sample and then the resultant mixture was heated to 100° C. in boiling water. After quenching followed by the extraction with 4 ml of chloroform, the chloroform layer was taken to determine bone DNA level with a spectrophotometer (490 nm).
as §3

[3] = system: metaphysis tissue of the femur; experiment: Bone resorption (PTH or prostaglandin E2): bone calcium level in cultured metaphysis tissue; type: cell-based, Wistar male rats
Method: as §1
Bone calcium level in the bone tissue was determined. After the culture in the incubator, the tissue pieces were washed with 0.25 M sucrose solution and dried and then the bone was weighed. Then concentrated nitric acid was added to the tissue pieces. After the incineration at 120° C. for 12 hours, the bone calcium level was determined with an atomic absorption photometer (“Perkin-Elmer 303” of Perkin-Elmer Co.).
The bone mineral dissolution-inhibiting effect of β-cryptoxanthin was examined. […] PTH also has a pathophysiologic role on the expression of osteoporosis caused by the aging. It is known that prostaglandin E2 also causes physiologic bone mineral dissolution. The diaphysis or metaphysis tissue of the femur was cultured in the presence of 10^−7 M PTH or 10^−5 M prostaglandin E2 for 48 hours and then calcium level in the bone tissue was determined. In another experiment, the culture was conducted in the same manner as that described above in the coexistence of them and β-cryptoxanthin (10^−8 M to 10^−6 M) and then calcium level in the bone tissue was determined. In each test group, the determination was conducted 6 to 8 times and the results were represented by the average value and the standard error. The significant difference was determined by Student's t-test. The result was compared with that of the control. When P value was not higher than 0.01 (*) as compared with the control or it is not higher than 0.1 (#) as compared with that of prostaglandin E2, the results were statistically significant.

[4] = system: rats, femoral metaphysis tissue; experiment: Oral administration to rats: bone alkaline phosphatase activity in metaphysis tissue; type: in vivo, Wistar male rats; settings: for Bone alkaline phosphatase activity: metaphysis tissue
Method: as §2
A solution of β-cryptoxanthin in corn oil having one of three kinds of concentration (10, 25 and 50 μg/ml corn oil) was orally administered to rats (Wistar male rats; 4 to 5 weeks old) in an amount/100 g body weight with a probe once a day for 7 days. The rats were sacrificed 24 hours after the final administration. The femurs were excised. The muscles, etc. were taken out and each femur was divided into diaphysis and metaphysis to determine the bone components.
Tests were conducted to examine whether the bone components are increased by the oral administration of β-cryptoxanthin to rats or not. β-cryptoxanthin was administered for 7 days (10, 25 or 50 μg/100 g body weight/day) and then calcium level in the bone tissue, determination of alkaline phosphatase activity (enzyme for the acceleration of the calcification of bones) and the amount of deoxyribonucleic acid (DNA: index of the number of the cells in the bone tissue) were determined by the same methods as those in Example 1. In each test group, the determination was conducted 6 times and the results were represented by the average value and the standard error. The significant difference was determined by Student's t-test. The result was compared with that of the control. When P value was not higher than 0.01 (*) as compared with the control, the results were statistically significant.

[5] = Table 2 (protein synthesis inhibitor experiment), 10^−6 M (each agent), n=6
[6] = β-cryptoxanthin 10^−6 M with cycloheximide

CC1=C(/C=C/C(C)=C/C=C/C(C)=C/C=C/C=C(C)/C=C/C=C(C)/C=C/C2=C(C)C[C@@H](O)CC2(C)C)C(C)(C)CCC1 [β-cryptoxanthin]
Effect on the enzymatic (alkaline phosphatase) activity in the metaphysis (in words) ([1]; 10^−7 to 10^−4 M (so in the source), 48 h culture, vs control): increase
Bone alkaline phosphatase activity [1, 5]: 1168.2 ± 30.1* nmol/min/mg protein
Bone alkaline phosphatase activity ([1]; 10^−5 M, 48 h culture): 1229.5 ± 40.9** nmol/min/mg protein
Bone alkaline phosphatase activity ([1]; 10^−6 M, 48 h culture): 1150.9 ± 26.8** nmol/min/mg protein
Bone alkaline phosphatase activity ([1]; 10^−7 M, 48 h culture): 945.2 ± 5.4** nmol/min/mg protein
Bone alkaline phosphatase activity ([1]; 10^−8 M, 48 h culture): 918.4 ± 4.3 nmol/min/mg protein
Bone alkaline phosphatase activity in metaphysis tissue increased by β-cryptoxanthin: change in the presence of cycloheximide (in words) [1, 6]: significantly lowered
Effect on DNA level in the metaphysis tissue (in words) ([2]; 10^−7 to 10^−5 M, 48 h culture, vs control): significantly increased
Bone DNA level [2, 5]: 5.401 ± 0.188* mg/g bone wet weight
Bone DNA level ([2]; 10^−5 M, 48 h culture): 5.584 ± 0.530** mg/g bone wet weight
Bone DNA level ([2]; 10^−6 M, 48 h culture): 5.359 ± 0.207** mg/g bone wet weight
Bone DNA level ([2]; 10^−7 M, 48 h culture): 4.170 ± 0.057** mg/g bone wet weight
Bone DNA level ([2]; 10^−8 M, 48 h culture): 3.276 ± 0.207 mg/g bone wet weight
Bone DNA level in metaphysis tissue increased by β-cryptoxanthin: change in the presence of cycloheximide (in words) [2, 6]: significantly lowered
Control of prostaglandin E2-caused reduction of calcium level in the bone tissue (in words) ([3]; metaphysis tissue, β-cryptoxanthin 10^−5 to 10^−6 M (so in the source) with prostaglandin E2 10^−5 M): completely controlled
Control of PTH-caused reduction of calcium level in the metaphysis tissue (in words) ([3]; β-cryptoxanthin 10^−8 to 10^−6 M in the presence of PTH): significantly controlled
Effect on alkali phosphatase activity in the metaphysis tissue after oral administration (in words) ([4]; 10, 25 or 50 μg/100 g body weight/day, 7 days): significantly increased
Bone alkaline phosphatase activity ([4]; oral 10 μg/100 g body weight/day for 7 days): 2.21 ± 0.023* μmol/min/mg protein
Bone alkaline phosphatase activity ([4]; oral 25 μg/100 g body weight/day for 7 days): 2.545 ± 0.029* μmol/min/mg protein
Bone alkaline phosphatase activity ([4]; oral 50 μg/100 g body weight/day for 7 days): 1.92 ± 0.015* μmol/min/mg protein
